This note sets out measurements from US7530461B2, “Esters of 5-aminolevulinic acid as photosensitizing agents in photochemotherapy” (PhotoCure ASA, priority 1995, dated 2009).

The subject of series [1] is basal cell carcinoma (BCC) lesions and surrounding normal skin. As to the kind of experiment: PpIX fluorescence in human BCC and surrounding normal skin by optical-fiber based system. The series is classed as in vivo. As to conditions: 20% for 4 hours, topical. As to the method: The PpIX fluorescence in the BCC lesions and surrounding normal skin of human patients was measured in situ by optical-fiber based system after topical application of 20% free ALA and its derivatives for various time intervals.
The PpIX fluorescence ratios between BCC lesions and surrounding normal skin after topical application of ALA or its esters (20% for 4 hours), was examined using methods described in previous examples.

Series [2] has as its system cervical intraepithelial lesions (CIN). As to the kind of experiment: Fluorescence detection of cervical intraepithelial lesions using HAL. The series is classed as in vivo, human. On the procedure:
This study involved 32 non-pregnant women with histologically proven squamous intraepithelial lesions (CIN).
5 to 20 ml of a cold-cream containing 0.5% (w/w) HAL hydrochloride was applied locally by means of a cervical cap. Random biopsies were performed at time points ranging from 5 min to 7 hours to assess the selective accumulation of HAL, as shown by fluorescence images. Image analysis on frozen tissue sections was carried out using a Zeiss Axiophot image analysis system.
A total of 112 biopsies were obtained from 32 patients. From these biopsies approximately 2000 fluorescence images were produced. […] Immediately after the biopsies were taken, the tissue was quickly frozen in liquid nitrogen and stored at −70° C. prior to use in order to stop any formation/degradation of cellular porphyrins. Tissue sections were prepared in the dark to avoid photobleaching. The frozen tissue blocks were mounted in Tissue Tek embedding compound (BDH) and a series of sections were prepared using a cryostat. Tissue sections were mounted on glass slides and images were recorded with a grey-scale camera. A band pass filter (BP395-440 nm) was used for excitation, while a second band-pass filter was used to record the specific Pp fluorescence.

Series [3] has as its system bladder cancer cells from patient urine. As to the kind of experiment: Detection of bladder cancer cells in urine. It counts as cell-based, human. As to conditions: 40 μg/ml or 0.15 mM, 4 hours at 37° C., blue light 390-440 nm. As to the method: Urine of a patient with bladder cancer was centrifuged (1500 rpm for 5 min) and resuspended into cell growth medium containing 10% fetal calf serum and HAL hydrochloride (40 μg/ml or 0.15 mM) for 4 hours at 37° C. in the dark. The cells fluoresced under blue light (390-440 nm) after being incubated with HAL HCl (FIG. 28). […] This was confirmed by cytology.

Series [4] deals with Human transitional cell carcinoma cells (T24). As to the kind of experiment: Induced fluorescence in T24 cells in vitro. The series is classed as cell-based. As to the method: Human transitional cell carcinoma cells (T24) were used. ALA and ALA esters were dissolved in growth medium not containing serum. Fluorescence was observed using an excitation wavelength of 410 nm and detecting emission at 640 nm.

The subject of series [5] is bladder carcinoma in situ (CIS) and other bladder tumor lesions. As to the kind of experiment: HAL fluorescence detection of bladder lesions vs. white light cystoscopy. The series is classed as in vivo, human. On the procedure:
Photodynamic detection of bladder carcinoma in situ (CIS) (flat cancer lesions) after exposure to a hexyl aminolevulinate composition (8 mM HAL in PBS: 4.3 mM KH2PO4, 4.3 mM Na2HPO4, 120 mM NaCl, pH 6.0) for one hour was performed and compared to white light cystoscopy in patients with bladder cancer (FIG. 31).
About 50 ml of HAL solution was instilled into the bladder. The solution was allowed to remain in the bladder for one hour. After bladder evacuation, the bladder was inspected by using a cystoscope (Storz D-Light, Karl Storz, Tuttlingen, Germany) and mapped under white light followed by inspection and mapping of all fluorescing lesions using blue light (380-450 nm) (light of wavelength of about 405 nm could have been used as the PpIX absorption spectrum includes a maximum near 405 nm). After mapping of the lesions in white and blue light separately, biopsies and resected tissue were obtained of all lesions and suspicious areas. Finally, one biopsy from normal appearing urothelium (negative in white and blue light) was taken. Tissue material was prepared by the local pathlogist and examined by both local and a central pathologist to verify the diagnosis.
In another study, an HAL composition detected 98% of tumor lesions in patients (regardless of tumor type), whereas use of white light identified only 73% of the lesions. The HAL solution composition and instillation and cystoscopy procedure is described above. The cystoscopy findings were verified by examination (by a pathologist) of 5 random biopsies taken from each patient. There were a total of 143 verified tumors in 45 patients including carcinoma in situ (CIS) and Ta or T1 lesions. HAL cystoscopy was performed in 43 of the patients with a detection rate of 96% (43/45). White light cystoscopy was performed in 33 of the patients with a detection rate of 73% (33/45).

“Also recorded” adds a separate entry of the source.

Consider `CCCCCCOC(=O)CCC(=O)CN.Cl` [HAL, n-hexyl 5-aminolevulinate hydrochloride], for which the “PpIX fluorescence ratios between BCC lesions and surrounding normal skin (selectivity) compared with free ALA” value in series [1] was “more selectively induce PpIX in BCC lesions than free ALA”. The “fluorescence of cervical lesions after topical application” value in series [2] (0.5% (w/w) HAL hydrochloride cold-cream, hydrochloride) was “excellent fluorescence; also recorded: high and homogenous fluorescence in the lesions”. Also, the “adverse reactions / tolerability” value in series [2] (0.5% cream applied to the cervix, patients, hydrochloride) was “No local or systemic adverse reactions; also recorded: well tolerated”. In addition, the “fluorescence after 5 minutes application” value in series [2] (0.5% cream, 5 minutes) is recorded as “low”. In series [2] (0.5% cream, 30 minutes and longer), the “fluorescence throughout the lesion at application times of 30 minutes and longer” value is “high and homogenous fluorescence throughout the lesion”. For the same molecule, the “selectivity of fluorescence for precancerous lesions” value in series [2] (0.5% cream, cervical biopsies of CIN lesions) is recorded as “excellent selectivity for precancerous lesions”. In series [2] (0.5% cream, more than three hours), the “selectivity at application time more than three hours” value was “the selectivity was reduced”. For the same molecule, the “selectivity after 1-2 hour application” value in series [2] (HAL 0.5% cream, 1-2 hour) was “excellent”. In addition, the “fluorescence of urine cells under blue light” value in series [3] is “only cancer cells fluoresced”. Further, the “maximum fluorescence relative to the maximum induced by aminolevulinic acid” value in series [4] (same conditions) is given as “nearly three times”. In addition, the “concentration inducing maximum fluorescence in cells in vitro” value in series [4] (serum-free medium, excitation 410 nm, emission 640 nm) is reported as “about 13 mM”. Moreover, the “CIS lesion detection rate as verified by biopsies” value in series [5] (8 mM HAL in PBS, one hour instillation, 218 patients for analysis) was 97%. Also, the “carcinoma in situ lesions identified in patients with CIS lesions only” value in series [5] (13 patients with CIS lesions only, 12/13) is given as 92%. Also, in series [5] (another study, 43/45), the “detection rate of HAL cystoscopy (patients)” value was found to be 96%. Also, the “tumor lesions detected (regardless of tumor type)” value in series [5] (another study, 143 verified tumors in 45 patients) turned out to be 98%.
